# Earlier results, collected in US9320295B2, “Compositions containing non-polar compounds” (Virun, Inc., priority 2010, dated 2016).
row,Substance,HLB value
1,sucrose monopalmitate,> 10
2,sucrose dipalmitate,7.4
3,sucrose distearate,3
